System: 556581-035-R-J1-PDC complex spheroid growth
Assay: Anticancer human tumor 556581-035-R-J1-PDC patient-derived ovarian carcinoma cell line growth inhibition [Asc]
Conditions: for IC50: curve of first compound; for viability, T/C: stronger effect = lower value; active = viability on the fitted dose curve at most 10% of control; inactive = the rest
Method in brief: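 Spheroid model: tumor line + HUVEC + hMSC. Single agents and combinations; top conc. at/near clinical Cmax (10 microM if undetermined), half-log dilutions. DMSO stocks at 800-fold test concentration.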

[1] = second compound 0.01 µM, first compound 0.0316 µM
[2] = second compound 0.01 µM, first compound 0.1 µM
[3] = second compound 0.01 µM, first compound 0.316 µM
[4] = second compound 0.01 µM, first compound 1 µM
[5] = second compound 0.0316 µM, first compound 0.0316 µM
[6] = second compound 0.0316 µM, first compound 0.1 µM
[7] = second compound 0.0316 µM, first compound 0.316 µM
[8] = second compound 0.0316 µM, first compound 1 µM
[9] = second compound 0.1 µM, first compound 0.0316 µM
[10] = second compound 0.1 µM, first compound 0.1 µM
[11] = second compound 0.1 µM, first compound 0.316 µM
[12] = second compound 0.1 µM, first compound 1 µM
[13] = second compound 0.316 µM, first compound 0.0316 µM
[14] = second compound 0.316 µM, first compound 0.1 µM
[15] = second compound 0.316 µM, first compound 0.316 µM
[16] = second compound 0.316 µM, first compound 1 µM
[17] = second compound 1 µM, first compound 0.0316 µM
[18] = second compound 1 µM, first compound 0.1 µM
[19] = second compound 1 µM, first compound 0.316 µM
[20] = second compound 1 µM, first compound 1 µM
[21] = second compound 0.01 µM, first compound 0.00316 µM
[22] = second compound 0.01 µM, first compound 0.01 µM
[23] = second compound 0.0316 µM, first compound 0.00316 µM
[24] = second compound 0.0316 µM, first compound 0.01 µM
[25] = second compound 0.1 µM, first compound 0.00316 µM
[26] = second compound 0.1 µM, first compound 0.01 µM
[27] = second compound 0.316 µM, first compound 0.00316 µM
[28] = second compound 0.316 µM, first compound 0.01 µM
[29] = second compound 1 µM, first compound 0.00316 µM
[30] = second compound 1 µM, first compound 0.01 µM
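Also: spheroids exposed to agents for 7 days before viability read.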

C#Cc1c(F)ccc2cc(O)cc(-c3ncc4c(N5CC6CCC(C5)N6)nc(OCC56CCCN5CC(F)C6)nc4c3F)c12 (configuration not stated) + CNC(C)C(=O)NC1CN(S(=O)(=O)c2cccc(S(=O)(=O)N3CCC4CCC(C(=O)NC(c5ccccc5)c5ccccc5)N4C(=O)C(NC(=O)C(C)NC)C3)c2)CCC2CCC(C(=O)NC(c3ccccc3)c3ccccc3)N2C1=O
5290 nM: IC50 (second compound 1 µM)
inactive: viability, T/C (second compound 0.00316 µM, first compound 0.0316 µM) 101% | viability, T/C (second compound 0.00316 µM, first compound 0.1 µM) 103% | viability, T/C (second compound 0.00316 µM, first compound 0.316 µM) 103% | viability, T/C (second compound 0.00316 µM, first compound 1 µM) 99.6% | viability, T/C (second compound 0.00316 µM, first compound 3.16 µM) 98% | viability, T/C (second compound 0.00316 µM, first compound 10 µM) 86.8% | viability, T/C [1] 105% | viability, T/C [2] 96.6% | viability, T/C [3] 100% | viability, T/C [4] 107% | viability, T/C (second compound 0.01 µM, first compound 3.16 µM) 87.6% | viability, T/C (second compound 0.01 µM, first compound 10 µM) 71% | viability, T/C [5] 96.7% | viability, T/C [6] 95.9% | viability, T/C [7] 88.5% | viability, T/C [8] 87.7% | viability, T/C (second compound 0.0316 µM, first compound 3.16 µM) 87% | viability, T/C (second compound 0.0316 µM, first compound 10 µM) 60.5% | viability, T/C [9] 92% | viability, T/C [10] 88.8% | viability, T/C [11] 76.8% | viability, T/C [12] 78% | viability, T/C (second compound 0.1 µM, first compound 3.16 µM) 77.9% | viability, T/C (second compound 0.1 µM, first compound 10 µM) 62% | viability, T/C [13] 82.6% | viability, T/C [14] 65.4% | viability, T/C [15] 75.3% | viability, T/C [16] 66.4% | viability, T/C (second compound 0.316 µM, first compound 3.16 µM) 62.8% | viability, T/C (second compound 0.316 µM, first compound 10 µM) 44% | viability, T/C [17] 65.2% | viability, T/C [18] 64.3% | viability, T/C [19] 65.6% | viability, T/C [20] 75.4% | viability, T/C (second compound 1 µM, first compound 3.16 µM) 57.9% | viability, T/C (second compound 1 µM, first compound 10 µM) 36.3%
> 10000 nM: IC50 (second compound 0.00316 µM) | IC50 (second compound 0.01 µM) | IC50 (second compound 0.0316 µM) | IC50 (second compound 0.1 µM)
6870 nM: IC50 (second compound 0.316 µM)

COc1c(OCCCN2CCOCC2)ccc2c3n(c(=NC(=O)c4cnc(N)nc4)nc12)CCN3 + CNC(C)C(=O)NC1CN(S(=O)(=O)c2cccc(S(=O)(=O)N3CCC4CCC(C(=O)NC(c5ccccc5)c5ccccc5)N4C(=O)C(NC(=O)C(C)NC)C3)c2)CCC2CCC(C(=O)NC(c3ccccc3)c3ccccc3)N2C1=O
9.84 nM: IC50 (second compound 1 µM)
17.2 nM: IC50 (second compound 0.01 µM)
active: viability, T/C [8] 9.75% | viability, T/C [16] 9.55% | viability, T/C [20] 7.78%
14.5 nM: IC50 (second compound 0.316 µM)
inactive: viability, T/C [21] 70.3% | viability, T/C [22] 58.8% | viability, T/C [1] 37.7% | viability, T/C [2] 35.7% | viability, T/C [3] 19.1% | viability, T/C [4] 12.2% | viability, T/C [23] 64.2% | viability, T/C [24] 58.2% | viability, T/C [5] 45.4% | viability, T/C [6] 35.5% | viability, T/C [7] 22.4% | viability, T/C [25] 58.6% | viability, T/C [26] 49.9% | viability, T/C [9] 38.5% | viability, T/C [10] 31.6% | viability, T/C [11] 19.3% | viability, T/C [12] 10.5% | viability, T/C [27] 64.6% | viability, T/C [28] 53.1% | viability, T/C [13] 42.4% | viability, T/C [14] 27.5% | viability, T/C [15] 16.4% | viability, T/C [29] 60.7% | viability, T/C [30] 47.1% | viability, T/C [17] 40.9% | viability, T/C [18] 27.3% | viability, T/C [19] 14.9%
22 nM: IC50 (second compound 0.0316 µM)
9.5 nM: IC50 (second compound 0.1 µM)

O=C(c1ccc(F)c(F)c1Nc1ccc(I)cc1F)N1CC(O)([C@@H]2CCCCN2)C1 + CNC(C)C(=O)NC1CN(S(=O)(=O)c2cccc(S(=O)(=O)N3CCC4CCC(C(=O)NC(c5ccccc5)c5ccccc5)N4C(=O)C(NC(=O)C(C)NC)C3)c2)CCC2CCC(C(=O)NC(c3ccccc3)c3ccccc3)N2C1=O
92 nM: IC50 (second compound 0.1 µM)
inactive: viability, T/C [21] 68.6% | viability, T/C [22] 71.7% | viability, T/C [1] 87.2% | viability, T/C [2] 83.6% | viability, T/C [3] 37% | viability, T/C [4] 10.6% | viability, T/C [23] 86.4% | viability, T/C [24] 72.7% | viability, T/C [5] 84.2% | viability, T/C [6] 71.9% | viability, T/C [7] 31.2% | viability, T/C [8] 13.3% | viability, T/C [25] 68.3% | viability, T/C [26] 64.5% | viability, T/C [9] 59.7% | viability, T/C [10] 50.8% | viability, T/C [11] 27.1% | viability, T/C [12] 12.7% | viability, T/C [27] 73.9% | viability, T/C [28] 68.8% | viability, T/C [13] 91.7% | viability, T/C [14] 66.3% | viability, T/C [15] 33.7% | viability, T/C [16] 15.2% | viability, T/C [29] 70.9% | viability, T/C [30] 81.4% | viability, T/C [17] 74% | viability, T/C [18] 53.6% | viability, T/C [19] 24.6% | viability, T/C [20] 11.2%
219 nM: IC50 (second compound 0.01 µM)
187 nM: IC50 (second compound 0.0316 µM)
119 nM: IC50 (second compound 1 µM)
183 nM: IC50 (second compound 0.316 µM)

CCN1CCN(Cc2ccc(Nc3ncc(F)c(-c4cc(F)c5nc(C)n(C(C)C)c5c4)n3)nc2)CC1 + CNC(C)C(=O)NC1CN(S(=O)(=O)c2cccc(S(=O)(=O)N3CCC4CCC(C(=O)NC(c5ccccc5)c5ccccc5)N4C(=O)C(NC(=O)C(C)NC)C3)c2)CCC2CCC(C(=O)NC(c3ccccc3)c3ccccc3)N2C1=O
339 nM: IC50 (second compound 0.1 µM)
318 nM: IC50 (second compound 0.316 µM)
> 1000 nM: IC50 (second compound 0.01 µM) | IC50 (second compound 0.0316 µM)
251 nM: IC50 (second compound 1 µM)
inactive: viability, T/C [21] 94.7% | viability, T/C [22] 97.4% | viability, T/C [1] 67.4% | viability, T/C [2] 73.6% | viability, T/C [3] 78.5% | viability, T/C [4] 72.2% | viability, T/C [23] 87.5% | viability, T/C [24] 88.7% | viability, T/C [5] 83% | viability, T/C [6] 85.7% | viability, T/C [7] 75.5% | viability, T/C [8] 56.2% | viability, T/C [25] 73.6% | viability, T/C [26] 79.3% | viability, T/C [9] 78.8% | viability, T/C [10] 65.4% | viability, T/C [11] 51.6% | viability, T/C [12] 44% | viability, T/C [27] 84.3% | viability, T/C [28] 82.8% | viability, T/C [13] 86.5% | viability, T/C [14] 57.8% | viability, T/C [15] 56% | viability, T/C [16] 37.6% | viability, T/C [29] 78.2% | viability, T/C [30] 82.8% | viability, T/C [17] 82.7% | viability, T/C [18] 56.2% | viability, T/C [19] 51.7% | viability, T/C [20] 33%

CCN1CCN(Cc2ccc(Nc3ncc(F)c(-c4cc(F)c5nc(C)n(C(C)C)c5c4)n3)nc2)CC1 + Cc1c(S(C)(=O)=O)c(-c2cc(F)cc(N3CCN(c4ccc(NS(=O)(=O)c5ccc(NC(CCN6CCC(C(=O)OCCCP(=O)(O)O)CC6)CSc6ccccc6)c(S(=O)(=O)C(F)(F)F)c5)cc4)CC3)c2)c(-c2ccc(Cl)cc2)n1C(C)C
490 nM: IC50 (second compound 10 µM)
556 nM: IC50 (second compound 1 µM)
782 nM: IC50 (second compound 3.16 µM)
inactive: viability, T/C [25] 99.3% | viability, T/C [26] 75.3% | viability, T/C [9] 88.9% | viability, T/C [10] 78.1% | viability, T/C [11] 87.8% | viability, T/C [12] 61% | viability, T/C [27] 83.7% | viability, T/C [28] 77.5% | viability, T/C [13] 86.5% | viability, T/C [14] 83.5% | viability, T/C [15] 74.7% | viability, T/C [16] 57.5% | viability, T/C [29] 78.2% | viability, T/C [30] 89.6% | viability, T/C [17] 86.6% | viability, T/C [18] 77.3% | viability, T/C [19] 62% | viability, T/C [20] 37.9% | viability, T/C (second compound 3.16 µM, first compound 0.00316 µM) 69.6% | viability, T/C (second compound 3.16 µM, first compound 0.01 µM) 86.1% | viability, T/C (second compound 3.16 µM, first compound 0.0316 µM) 90.1% | viability, T/C (second compound 3.16 µM, first compound 0.1 µM) 66.5% | viability, T/C (second compound 3.16 µM, first compound 0.316 µM) 67.6% | viability, T/C (second compound 3.16 µM, first compound 1 µM) 45.5% | viability, T/C (second compound 10 µM, first compound 0.00316 µM) 68.9% | viability, T/C (second compound 10 µM, first compound 0.01 µM) 69.7% | viability, T/C (second compound 10 µM, first compound 0.0316 µM) 79.9% | viability, T/C (second compound 10 µM, first compound 0.1 µM) 64% | viability, T/C (second compound 10 µM, first compound 0.316 µM) 70.6% | viability, T/C (second compound 10 µM, first compound 1 µM) 16.7%
> 1000 nM: IC50 (second compound 0.1 µM) | IC50 (second compound 0.316 µM)
